From US20160177261A1, “METHODS OF INDUCING AND PREVENTING NEUROFIBROMATOSIS IN SCHWANN CELLS” (University of Central Florida Research Foundation, Inc., priority 2007, published 2016)
“Also recorded” adds a separate entry of the source.

Tests used:
Assay type in all cases: cell-based, rat
Sch = experiment: Western blot densitometry of total Sch (Sch-C18) protein in subconfluent SCs; conditions: NRG1 and laminin-1 30 min in the presence and absence of AG825
Protocol: (§1) FIG. 4: Soluble Laminin-1 Stimulates Phosphorylation of Sch. A, C) Subconfluent SC cultures grown on PLL were stimulated with laminin-1 (10 μg/ml) for 30 minutes after overnight serum starvation. Western blot analysis using antibodies specific for the phosphorylated forms of Sch (PS518-Sch) and Pak (P-Pak) and antibodies against total Sch (Sch-C18), Pak, and β1 integrin are shown. B, D). Quantification of Western blots for starved (D0.5) and laminin-1 stimulated (Lam) cultures is shown. The graphs represent the average fold increase in each condition observed in three or more experiments. GAPDH was used as a loading control for all blots. Error bars represent the SEM for each condition. P values are <0.05(*) and <0.01(**).
(§2) Subconfluent SC cultures grown on PLL were serum-starved overnight and were stimulated for 30 minutes with NRG1 (10 ng/ml) and laminin-1 ([…]) together, in the absence and presence of AG825 (1 μM). […] Total protein expression was analyzed using antibodies against Sch (Sch-C18), Pak, β1 integrin, and ErbB2. B, D, F) Quantification of the expression levels of phosphorylated forms of Sch (PS518-Sch) and Pak (P-Pak) were assessed in starved (D0.5), NRG1 and laminin-1 stimulated (NRG+Lam), and NRG1 plus laminin-1 and AG825 (N+L+A) stimulated cultures. The amount of total Sch (Sch-C18), Pak, β1 integrin, and ErbB2 proteins were measured by densitometry. […]

PS518-Sch = experiment: Western blot densitometry of Sch-S518 phosphorylation in subconfluent SCs
Protocol: (§3) FIG. 3: NRG1 stimulates phosphorylation of Sch by PKA. A, C) Subconfluent SC cultures grown on PLL were serum-starved overnight and were stimulated for 30 minutes with NRG1 (10 ng/ml) in the absence and presence of AG825 (1 μM). Western blot analysis was used to determine the levels of phosphorylated and total ErbB2, Sch, and Pak. B, D) Quantification of the western blots of starved (D0.5), NRG1 stimulated (NRG) and NRG1 plus AG825 (N+A) stimulated cultures is shown. E) Subconfluent SCs grown as above were stimulated for 30 minutes with NRG in the presence and absence of PKI 14-22 (50 nM), and with forskolin (FSK; 2 μM) alone. F) Quantification of the Western blots for ErbB2, Sch, and Pak in starved (D0.5) cultures, and in those stimulated with NRG1 (NRG), NRG1 with PKI 14-22 (N+P), and forskolin (FSK) is shown. GAPDH was used as a loading control for all blots. The graphs represent the average fold increase in each condition in three or more experiments. Error bars represent the SEM for each condition. P values are <0.05(*) with respect to starved SCs or as indicated.
as §1
Subconfluent SC cultures grown on PLL were serum-starved overnight and were stimulated for 30 minutes with NRG1 (10 ng/ml) and laminin-1 ([…]) together, in the absence and presence of AG825 (1 μM). A, C, E, G) Western blot analyses were conducted using phospho-specific antibodies for Sch (PS518-Sch), Pak (P-Pak), and CREB (P-CREB). Total protein expression was analyzed using antibodies against Sch (Sch-C18), Pak, β1 integrin, and ErbB2. B, D, F) Quantification of the expression levels of phosphorylated forms of Sch (PS518-Sch) and Pak (P-Pak) were assessed in starved (D0.5), NRG1 and laminin-1 stimulated (NRG+Lam), and NRG1 plus laminin-1 and AG825 (N+L+A) stimulated cultures. The amount of total Sch (Sch-C18), Pak, β1 integrin, and ErbB2 proteins were measured by densitometry. GAPDH was used as a loading control. The graphs represent the average fold increase in each condition in three or more experiments. Error bars represent the SEM for each condition. […]

P-CREB = experiment: Western blot of phosphorylated CREB in subconfluent SCs
Protocol: as §3, with “GAPDH was used as a loading control for all blots. The graphs represent the average fold increase in each condition in three or more experiments. Error bars represent the SEM for each condition. P values are <0.05(*) with respect to starved SCs or as indicated.” left out
Subconfluent SC cultures grown on PLL were serum-starved overnight and were stimulated for 30 minutes with NRG1 (10 ng/ml) and laminin-1 ([…]) together, in the absence and presence of AG825 (1 μM). […] Total protein expression was analyzed using antibodies against Sch (Sch-C18), Pak, β1 integrin, and ErbB2. B, D, F) Quantification of the expression levels of phosphorylated forms of Sch (PS518-Sch) and Pak (P-Pak) were assessed in starved (D0.5), NRG1 and laminin-1 stimulated (NRG+Lam), and NRG1 plus laminin-1 and AG825 (N+L+A) stimulated cultures. […]

Pak = experiment: Western blot densitometry of total Pak protein in subconfluent SCs; conditions: NRG1 and laminin-1 30 min in the presence and absence of AG825
Protocol: as §1, §2

ErbB2 = experiment: Western blot densitometry of total ErbB2 protein in subconfluent SCs
Protocol: as §3, with “Error bars represent the SEM for each condition. P values are <0.05(*) with respect to starved SCs or as indicated.” left out
(§4) FIG. 6: β1 integrin and ErbB2 Exist as a Complex on the Plasma Membrane. […] E) Quantification of total β1 integrin and ErbB2 expression was assessed by densitometry in starved (D0.5), NRG1 stimulated (NRG) and NRG with AG825 (N+A) stimulated cultures. […] G) Quantification of total β1 integrin and ErbB2 expression in starved (D0.5), laminin-stimulated (Lam) and laminin+AG825 (L+A) stimulated cultures is shown. […]

P-ErbB2 = experiment: Western blot densitometry of phosphorylated ErbB2 in subconfluent SCs; conditions: NRG1 10 ng/ml 30 min with AG825 (1 μM)
Protocol: as §3, with “P values are <0.05(*) with respect to starved SCs or as indicated.” left out
Primary rat SCs were grown to approximately 60% confluency on PLL coated dishes. […] Following extraction, the SC lysate was measured for protein concentration, and […] of total SC lysate was separated by SDS-PAGE and was transferred to PVDF membranes. […] Bands intensities were quantified and normalized to GAPDH, and to their respective total proteins for phosphorylated forms. […]

P-Pak = experiment: Western blot densitometry of phosphorylated Pak in subconfluent SCs
Protocol: as §3, with “GAPDH was used as a loading control for all blots. The graphs represent the average fold increase in each condition in three or more experiments. Error bars represent the SEM for each condition. P values are <0.05(*) with respect to starved SCs or as indicated.” left out
FIG. 4: Soluble Laminin-1 Stimulates Phosphorylation of Sch. […] Quantification of Western blots for starved (D0.5) and laminin-1 stimulated (Lam) cultures is shown. […]
Subconfluent SC cultures grown on PLL were serum-starved overnight and were stimulated for 30 minutes with NRG1 (10 ng/ml) and laminin-1 ([…]) together, in the absence and presence of AG825 (1 μM). […] Total protein expression was analyzed using antibodies against Sch (Sch-C18), Pak, β1 integrin, and ErbB2. […] The amount of total Sch (Sch-C18), Pak, β1 integrin, and ErbB2 proteins were measured by densitometry. […]

β1 integrin = experiment: Western blot densitometry of total β1 integrin protein in subconfluent SCs
Protocol: as §1
as §4, with “Membrane. A) Subconfluent SC cultures grown on PLL and laminin-1 were starved overnight and were stimulated with NRG1 for 30 minutes. SCs were triple-labeled with the indicated antibodies to assess protein co-localization.” for “Membrane.”
as §2

[1] = AG825 in the absence of NRG1 (data not shown)
[2] = NRG1 and laminin-1 30 min in the presence of AG825 (1 μM), compared to starved SCs

**Q.** Which “effect on Sch protein levels” value (Sch) does the source give for COc1cc(/C=C(\C#N)C(N)=O)cc(CSc2nc3ccccc3s2)c1O [AG825] here?
**A.** not significantly changed

**Q.** And the “effect on basal level of phosphorylated Sch” value (PS518-Sch; [1])?
**A.** increases basal levels

**Q.** And the “reduction of Sch-S518 phosphorylation in response to NRG1” value (PS518-Sch; NRG1 10 ng/ml 30 min with inhibitor (AG825 1 μM or PKI 14-22 50 nM))?
**A.** 50%

**Q.** What about the “effect on NRG1 stimulated Sch-S518 phosphorylation” value (PS518-Sch; NRG1 30 min with inhibitor (AG825 1 μM or PKI 14-22 50 nM)) of the same molecule?
**A.** reduced

**Q.** And the PS518-Sch fold increase (PS518-Sch; [2])?
**A.** 4.6 fold

**Q.** And the “effect on NRG1 stimulated CREB phosphorylation” value (P-CREB; NRG1 30 min with inhibitor (AG825 or PKI 14-22 50 nM))?
**A.** inhibit this phosphorylation

**Q.** And the “effect on CREB phosphorylation in dually stimulated SCs” value (P-CREB; NRG1 and laminin-1 30 min with AG825 (1 μM))?
**A.** inhibited phosphorylation of CREB; also recorded: eliminated

**Q.** And the “effect on Pak protein levels” value (Pak)?
**A.** not significantly changed

**Q.** What about the “effect on NRG1 induced change of ErbB2 protein levels” value (ErbB2; NRG1 30 min with AG825 (1 μM)) of the same molecule?
**A.** attenuated the reduction in ErbB2 levels; also recorded: suppressed NRG1's effect; also recorded: attenuates the loss of ErbB2 protein

**Q.** And the “effect on ErbB2 levels” value (ErbB2; laminin-1 30 min with AG825 (1 μM), with respect to laminin-stimulated SCs)?
**A.** did not alter

**Q.** And the “effect on NRG1 stimulated phosphorylation of ErbB2” value (P-ErbB2)?
**A.** reduced NRG1 stimulated phosphorylation of ErbB2 significantly

**Q.** What about the “effect on basal level of phosphorylated Pak” value (P-Pak; [1]) of the same molecule?
**A.** increases basal levels

**Q.** What about the P-Pak fold increase (P-Pak; [2]) of the same molecule?
**A.** 3.1 fold

**Q.** And the “effect on NRG1 induced increase of β1 integrin protein levels” value (β1 integrin; NRG1 30 min with AG825 (1 μM))?
**A.** suppressed NRG1's effect; also recorded: inhibits the increase in β1 integrin

**Q.** What about the “effect on β1 integrin protein levels” value (β1 integrin; NRG1 and laminin-1 30 min in the presence and absence of AG825) of the same molecule?
**A.** not significantly changed

**Q.** And the “decrease in β1 integrin levels” value (β1 integrin; laminin-1 30 min with AG825 (1 μM))?
**A.** 50%
